From US7943550B2, “4-(3-Aminobenzoyl)-1 methylpyrazoles and their use as herbicides” (Bayer Cropscience AG, priority 2007, dated 2011)
Like-named read-outs stand apart in the source and are kept apart here.

Key:
Assay type in all cases: in vivo
Galium aparine = assay: Post-emergence herbicidal action against harmful plants; conditions: Comparative Table 4, 20 g a.i./ha, scored after 3 to 4 weeks
Description: (§1) 2. Post-Emergence Herbicidal Action Against Harmful Plants
(§2) Seeds of mono- and dicotyledonous harmful plants are placed in sandy loam in cardboard pots, covered with soil and grown in the greenhouse under good growth conditions. Two to three weeks after sowing, the test plants are treated at the three-leaf stage. The compounds according to the invention, which are formulated as wettable powders or as emulsion concentrates, are sprayed at an application rate of 600 to 800 l of water/ha (converted) in a dosage stated in tables 1 to 5 onto the surface of the green plant parts. After the test plants have been left to stand in the greenhouse for 3 to 4 weeks under optimum growth conditions, the action of the compounds according to the invention is scored in comparison to compounds disclosed in the prior art. As shown by the results of these comparison tables, the selected compounds according to the invention have better herbicidal activity against a broad spectrum of economically important mono- and dicotyledonous harmful plants than the compounds disclosed in the prior art.

Veronica persica [1] = assay: as above; conditions: scored after 3 to 4 weeks
Description: as §1, §2

Digitaria sanguinalis = assay: as above; conditions: Comparative Table 4, 20 g a.i./ha, scored after 3 to 4 weeks
Description: as §1, §2

Setaria viridis [2] = assay: as above; conditions: scored after 3 to 4 weeks, read-out: Activity against harmful plants SETVI; for pest or weed control at 80 g/ha: Comparative Table 2, 80 g a.i./ha
Description: as §1, §2

Amaranthus retroflexus [3] = assay: as above; conditions: scored after 3 to 4 weeks
Description: as §1, §2

Pharbitis purpureum = assay: as above; conditions: scored after 3 to 4 weeks
Description: as §1, §2

Polygonum convolvulus [4] = assay: Pre-emergence herbicidal action against harmful plants; conditions: Comparative Table 7, 320 g a.i./ha, visual scoring 3-4 weeks after treatment
Text: (§3) 1. Pre-Emergence Herbicidal Action Against Harmful Plants Seeds or rhizome pieces of mono- and dicotyledonous harmful plants are placed in sandy loam in pots of a diameter of 9 to 13 cm and covered with soil. The herbicides, formulated as emulsifiable concentrates or dusts, are applied to the surface of the covering soil in the form of aqueous dispersions or suspensions or emulsions at an application rate of 300 to 800 l of water/ha (converted), at various dosages. For further cultivation of the plants, the pots are then kept in a greenhouse under optimum conditions. The visual scoring of the damage to the harmful plants is carried out 3-4 weeks after the treatment. As shown by the results of these comparative tables, the selected compounds according to the invention have better herbicidal activity against a broad spectrum of economically important mono- and dicotyledonous harmful plants than the compounds disclosed in the prior art.

Veronica persica [5] = assay: as above; conditions: Comparative Table 7, 320 g a.i./ha, visual scoring 3-4 weeks after treatment
Text: as §3

Cyperus serotinus = assay: as above; conditions: Comparative Table 7, 320 g a.i./ha, visual scoring 3-4 weeks after treatment
Text: as §3

Viola tricolor = assay: Post-emergence herbicidal action against harmful plants; conditions: scored after 3 to 4 weeks
Description: as §1, §2

Abutilon theophrasti = assay: as above; conditions: Comparative Table 8, 20 g a.i./ha, scored after 3 to 4 weeks
Description: as §1, §2

Stellaria media = assay: as above; conditions: Comparative Table 8, 20 g a.i./ha, scored after 3 to 4 weeks
Description: as §1, §2

Amaranthus retroflexus [6] = assay: Pre-emergence herbicidal action against harmful plants; conditions: Comparative Table 5, 80 g a.i./ha, visual scoring 3-4 weeks after treatment
Text: as §3

Echinochloa crus galli = assay: as above; conditions: visual scoring 3-4 weeks after treatment
Text: as §3

Avena fatua = assay: as above; conditions: Comparative Table 5, 80 g a.i./ha, visual scoring 3-4 weeks after treatment
Text: as §3

Setaria viridis [7] = assay: as above; conditions: visual scoring 3-4 weeks after treatment
Text: as §3

Polygonum convolvulus [8] = assay: Post-emergence herbicidal action against harmful plants; conditions: Comparative Table 1, 20 g a.i./ha, scored after 3 to 4 weeks
Description: as §1, §2

Xanthium strumarium = assay: as above; conditions: Comparative Table 1, 20 g a.i./ha, scored after 3 to 4 weeks
Description: as §1, §2

[9] = Comparative Table 4, 20 g a.i./ha
[10] = Comparative Table 3, 20 g a.i./ha
[11] = Comparative Table 2, 80 g a.i./ha
[12] = Comparative Table 8, 20 g a.i./ha
[13] = Comparative Table 5, 80 g a.i./ha
[14] = Comparative Table 6, 20 g a.i./ha
[15] = Comparative Table 1, 20 g a.i./ha

## CCCNc1c(S(C)(=O)=O)ccc(C(=O)c2cnn(C)c2O)c1C
Galium aparine
  Activity against harmful plants GALAP: 80%
Veronica persica [1]; [9]
  Activity against harmful plants VERPE: 70%
Digitaria sanguinalis
  Activity against harmful plants DIGSA: 90%
Setaria viridis [2]; [9]
  pest or weed control at 20 g/ha: 80%

## COCCN(C)c1c(S(C)(=O)=O)ccc(C(=O)c2cnn(C)c2O)c1C
Amaranthus retroflexus [3]; [10]
  Activity against harmful plants AMARE: 90%
Pharbitis purpureum; [10]
  Activity against harmful plants PHBPU: 80%
Veronica persica [1]; [10]
  Activity against harmful plants VERPE: 100%
Setaria viridis [2]; [10]
  pest or weed control at 20 g/ha: 90%

## Cc1c(C(=O)c2cnn(C)c2O)ccc(S(C)(=O)=O)c1NCC1CC1
Polygonum convolvulus [4]
  Activity against harmful plants POLCO: 60%
Veronica persica [5]
  Activity against harmful plants VERPE: 100%
Cyperus serotinus
  Activity against harmful plants CYPES: 100%

## COCCN(C)c1c(S(C)(=O)=O)ccc(C(=O)c2cnn(C)c2O)c1Cl
Amaranthus retroflexus [3]; [10]
  Activity against harmful plants AMARE: 60%
Pharbitis purpureum; [10]
  Activity against harmful plants PHBPU: 30%
Veronica persica [1]; [10]
  Activity against harmful plants VERPE: 60%
Setaria viridis [2]; [10]
  pest or weed control at 20 g/ha: 50%

## COCCCN(C)c1c(S(C)(=O)=O)ccc(C(=O)c2cnn(C)c2O)c1C
Amaranthus retroflexus [3]; [11]
  Activity against harmful plants AMARE: 100%
Pharbitis purpureum; [11]
  Activity against harmful plants PHBPU: 70%
Setaria viridis [2]
  pest or weed control at 80 g/ha: 100%
Viola tricolor; [11]
  Activity against harmful plants VIOTR: 90%

## CN(CC1CC1)c1c(S(C)(=O)=O)ccc(C(=O)c2cnn(C)c2O)c1Cl
Abutilon theophrasti
  Activity against harmful plants ABUTH: 70%
Stellaria media
  Activity against harmful plants STEME: 80%
Veronica persica [1]; [12]
  Activity against harmful plants VERPE: 60%
Setaria viridis [2]; [12]
  pest or weed control at 20 g/ha: 30%

## CCOCCNc1c(S(C)(=O)=O)ccc(C(=O)c2cnn(C)c2O)c1C
Amaranthus retroflexus [6]
  Activity against harmful plants AMARE: 100%
Echinochloa crus galli; [13]
  Activity against harmful plants ECHCG: 100%
Avena fatua
  Activity against harmful plants AVEFA: 50%
Setaria viridis [7]; [13]
  Activity against harmful plants SETVI: 100%

## CCCNc1c(S(C)(=O)=O)ccc(C(=O)c2cnn(C)c2O)c1Cl
Galium aparine
  Activity against harmful plants GALAP: 30%
Veronica persica [1]; [9]
  Activity against harmful plants VERPE: 30%
Digitaria sanguinalis
  Activity against harmful plants DIGSA: 70%
Setaria viridis [2]; [9]
  pest or weed control at 20 g/ha: 50%

## Cc1c(C(=O)c2cnn(C)c2O)ccc(S(C)(=O)=O)c1N(C)CC1CC1
Abutilon theophrasti
  Activity against harmful plants ABUTH: 90%
Stellaria media
  Activity against harmful plants STEME: 100%
Veronica persica [1]; [12]
  Activity against harmful plants VERPE: 80%
Setaria viridis [2]; [12]
  pest or weed control at 20 g/ha: 90%

## CCNc1c(S(C)(=O)=O)ccc(C(=O)c2cnn(C)c2O)c1Cl
Echinochloa crus galli; [14]
  Activity against harmful plants ECHCG: 60%
Setaria viridis [7]; [14]
  Activity against harmful plants SETVI: 0%

## COCCCN(C)c1c(S(C)(=O)=O)ccc(C(=O)c2cnn(C)c2O)c1Cl
Amaranthus retroflexus [3]; [11]
  Activity against harmful plants AMARE: 70%
Pharbitis purpureum; [11]
  Activity against harmful plants PHBPU: 40%
Setaria viridis [2]
  pest or weed control at 80 g/ha: 0%
Viola tricolor; [11]
  Activity against harmful plants VIOTR: 70%

## CNc1c(S(C)(=O)=O)ccc(C(=O)c2cnn(C)c2O)c1C
Polygonum convolvulus [8]
  Activity against harmful plants POLCO: 90%
Amaranthus retroflexus [3]; [15]
  Activity against harmful plants AMARE: 90%
Xanthium strumarium
  Activity against harmful plants XANST: 80%
Viola tricolor; [15]
  Activity against harmful plants VIOTR: 100%

## CCNc1c(S(C)(=O)=O)ccc(C(=O)c2cnn(C)c2O)c1C
Echinochloa crus galli; [14]
  Activity against harmful plants ECHCG: 90%
Setaria viridis [7]; [14]
  Activity against harmful plants SETVI: 60%

## CCOCCNc1c(S(C)(=O)=O)ccc(C(=O)c2cnn(C)c2O)c1Cl
Amaranthus retroflexus [6]
  Activity against harmful plants AMARE: 80%
Echinochloa crus galli; [13]
  Activity against harmful plants ECHCG: 40%
Avena fatua
  Activity against harmful plants AVEFA: 0%
Setaria viridis [7]; [13]
  Activity against harmful plants SETVI: 80%

## CNc1c(S(C)(=O)=O)ccc(C(=O)c2cnn(C)c2O)c1Cl
Polygonum convolvulus [8]
  Activity against harmful plants POLCO: 40%
Amaranthus retroflexus [3]; [15]
  Activity against harmful plants AMARE: 70%
Xanthium strumarium
  Activity against harmful plants XANST: 50%
Viola tricolor; [15]
  Activity against harmful plants VIOTR: 70%

## Cn1ncc(C(=O)c2ccc(S(C)(=O)=O)c(NCC3CC3)c2Cl)c1O
Polygonum convolvulus [4]
  Activity against harmful plants POLCO: 0%
Veronica persica [5]
  Activity against harmful plants VERPE: 80%
Cyperus serotinus
  Activity against harmful plants CYPES: 40%
